Data on two substances can be found in patent publication US8729032B2, “Self-assembling peptide and peptide gel with high strength” (Menicon Co., Ltd., priority 2009, dated 2014).

In test [1] the test system is mouse myoblasts (L6). Put plainly: Cell culture in peptide gel, DNA quantification (CyQUANT), cell growth rate. Conditions: rate immediately after start = 100%, peptide 0.4 w/v %, average of n=3. The class given is cell-based. From the text: A cell suspension including mouse myoblasts (L6) at a cell concentration of 2.0×10^6 cells/ml and a peptide aqueous solution including the modified peptide 1 at 1.0 w/v % were mixed with each other at a volume ratio of 3:2 (cell suspension:peptide aqueous solution). The resultant mixture (cell concentration: 1.2×10^6 cells/ml, peptide concentration: 0.4 w/v %) was charged into a Cell Culture Insert (product number “353096” manufactured by BD Falcon) and left to stand still at room temperature for approximately 1 minute to form a peptide gel. The gel in the Cell Culture Insert was directly set in wells of a 24-well plate for tissue culture (product number “3820-024” manufactured by AGC TECHNO GLASS CO., LTD.) with 1 mL of a DMEM medium containing 10% calf serum. Next, cell culture was carried out in an incubator at 37° C. in the presence of 5% CO2. Medium exchange was carried out only once on Day 2 after the start of culture. The gel was collected on Days 1, 2, and 4 after the start of culture, and DNA quantification was carried out using a trade name “CyQUANT (registered trademark) Cell Proliferation Assay Kit*for cells in culture**1000 assays*” (product number “C7026” manufactured by Invitrogen), to thereby calculate cell growth rates. The cell growth rates on Days 1, 2, and 4 after the start of culture were 150%, 180%, and 310%, respectively, when the cell growth rate immediately after the start of culture was defined as 100%, that is, the number of cells increased in accordance with a lapse of days (an average of n=3 was used for the calculation results).

In test [2] the test system is mouse NIH3T3 cells. Put plainly: Cell culture in autoclaved peptide gel, Cell Counting Kit 8, cell growth rate. Conditions: Day 0 (Hour 2), Day 1, Day 3, Day 5; gel from 0.5 w/v % solution autoclaved at 121° C. for 20 minutes; FIG. 9. The class given is cell-based. How it is done: The modified peptide 1 was dissolved in a sodium carbonate solution to prepare a 0.5 w/v % peptide aqueous solution (final concentration of sodium carbonate: 2.75 mM). The peptide aqueous solution was subjected to sterilization treatment at 121° C. for 20 minutes using an autoclave apparatus (product number “MLS 3020” manufactured by SANYO Electric Co., Ltd.) to afford a peptide gel. The gel and a cell suspension obtained by suspending mouse NIH3T3 cells in a DMEM medium were uniformly mixed with each other at a volume ratio of 2:1 (gel:cell suspension) by pipetting. […] Cell growth rates were measured using a trade name “Cell Counting Kit 8” (manufactured by DOJINDO LABORATORIES) on Day 0 (Hour 2), Day 1, Day 3, and Day 5 after the start of culture.
A specific procedure for the measurement of the cell growth rates described above is as described below. […] After the incubation, 100 μL of the medium permeating the gel in the Cell Culture Insert were transferred to a well of a 96-well plate, and the absorbance of the medium at 450 nm was measured using a plate reader. Cell growth rates in the respective culture days were determined with the absorbance of a sample on Day 0 after the start of culture defined as 100.

Take “[CH3CO]-RLDLRLALRLDLR-[NH2] (Ac-RLDLRLALRLDLR-NH2) [modified peptide 1]”: the cell growth rate in test [1] (Day 1 after start of culture) is 150%; in test [1] (Day 2 after start of culture), 180%; in test [1] (Day 4 after start of culture), 310%. In addition, the cell growth rates entry in test [2] is “increased in accordance with a lapse of culture days”.

For “[CH3CO]-RLDLRLLLRLDLR-[NH2] (Ac-RLDLRLLLRLDLR-NH2) [modified peptide 2]”, the values for the cell growth rate in test [1] (Day 1 after start of culture), in test [1] (Day 2 after start of culture) and in test [1] (Day 4 after start of culture) were 140%, 160% and 250%, respectively.
